One series addresses T1, Human COX-2 (Homo sapiens, UniProt P35354).
T1 construct: 500 μl of peripheral blood collected from a healthy volunteer; endogenous in cells; host or cells: human whole peripheral blood from a healthy volunteer, stimulated with LPS
T1 sequence (P35354 18-604): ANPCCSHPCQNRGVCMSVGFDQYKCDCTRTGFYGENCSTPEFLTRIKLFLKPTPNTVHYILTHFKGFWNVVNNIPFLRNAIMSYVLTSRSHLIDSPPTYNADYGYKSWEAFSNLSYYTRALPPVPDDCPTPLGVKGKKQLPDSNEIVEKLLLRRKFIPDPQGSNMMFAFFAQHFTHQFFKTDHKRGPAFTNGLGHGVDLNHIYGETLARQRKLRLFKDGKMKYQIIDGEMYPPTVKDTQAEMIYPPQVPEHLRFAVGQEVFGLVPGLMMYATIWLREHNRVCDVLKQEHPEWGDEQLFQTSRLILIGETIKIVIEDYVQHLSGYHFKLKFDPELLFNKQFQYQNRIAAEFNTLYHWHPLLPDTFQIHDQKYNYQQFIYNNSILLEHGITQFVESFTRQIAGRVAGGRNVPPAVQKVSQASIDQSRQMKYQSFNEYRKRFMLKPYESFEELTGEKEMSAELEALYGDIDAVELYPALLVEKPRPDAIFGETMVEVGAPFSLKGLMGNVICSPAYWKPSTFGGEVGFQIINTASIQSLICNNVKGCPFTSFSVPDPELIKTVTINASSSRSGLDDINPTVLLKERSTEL
In words: Inhibitory activity against human COX-2 using peripheral blood (LPS-stimulated, thromboxane B2 EIA). In kind it is cell-based. As to conditions: LPS 10 μg/ml, 37° C. 5 hours. The protocol:
(§1) Method for Measuring Inhibitory Activity Against Human COX-1 and COX-2 Using Peripheral Blood
(§2) 1 μl of a solution of the compound of the present invention in DMSO was added to 500 μl of peripheral blood collected from a healthy volunteer.
In the case of measuring COX-2 activity, LPS (E. coli 026:B6) was added onto blood to which the compound has been added to a concentration of 10 μg/ml followed by incubating at 37° C. for 5 hours and transferring onto ice to stop the reaction.

For the next series, the target named is T2, Human COX-1 (Homo sapiens, UniProt P23219).
T2 construct: 500 μl of peripheral blood collected from a healthy volunteer; endogenous in cells; host or cells: human whole peripheral blood from a healthy volunteer, stimulated with calcium ionophore A23187
T2 sequence (P23219 24-599): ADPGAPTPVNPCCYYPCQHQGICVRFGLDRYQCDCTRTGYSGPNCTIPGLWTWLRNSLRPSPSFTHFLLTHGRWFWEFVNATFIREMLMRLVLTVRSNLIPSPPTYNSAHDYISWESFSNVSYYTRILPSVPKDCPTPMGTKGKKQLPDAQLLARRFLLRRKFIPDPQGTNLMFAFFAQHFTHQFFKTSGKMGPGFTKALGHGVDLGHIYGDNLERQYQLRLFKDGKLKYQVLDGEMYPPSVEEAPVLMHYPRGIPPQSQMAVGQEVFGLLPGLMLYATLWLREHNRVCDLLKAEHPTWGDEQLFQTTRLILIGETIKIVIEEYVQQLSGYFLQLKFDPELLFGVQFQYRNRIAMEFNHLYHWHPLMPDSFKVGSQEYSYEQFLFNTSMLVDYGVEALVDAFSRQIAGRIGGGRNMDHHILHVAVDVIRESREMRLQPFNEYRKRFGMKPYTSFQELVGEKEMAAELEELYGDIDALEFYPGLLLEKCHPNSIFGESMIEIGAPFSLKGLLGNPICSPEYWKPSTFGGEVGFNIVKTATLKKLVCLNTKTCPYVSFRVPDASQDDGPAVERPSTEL
In words: Inhibitory activity against human COX-1 using peripheral blood (calcium ionophore A23187, thromboxane B2 EIA). In kind it is cell-based. As to conditions: 37° C. 4.5 hours then A23187 500 μM 30 minutes. Here is the method:
as §1, §2
In the case of measuring COX-1 activity, after incubating at 37° C. for 4.5 hours, calcium ionophore A23187 was added to a final concentration of 500 μM followed by additional incubation at 37° C. for 30 minutes and transferring to ice to stop the reaction.

Molecules are shown by their SMILES.

The values that follow come from US6875770B2, “Indole derivative having heterocycle and mono- or diazaindole derivative” (Chugai Seiyaku Kabushiki Kaisha, priority 1998, dated 2005).

With `CS(=O)(=O)c1ccc2c(c1)cc(C1=CCOCC1)n2Cc1ccc(F)cc1` [Example 14, 2-(5,6-Dihydro-2H-4-pyranyl)-1-(4-fluorobenzyl)-5-methanesulfonyl-indole], the IC50 is 100 nM on Human COX-2 and greater than 20000 nM on Human COX-1.
As for `CS(=O)(=O)c1ccc2c(c1)cc(-c1ccco1)n2Cc1ccc(F)cc1` [Example 8, 2-(2-Furanyl)-1-(4-fluorobenzyl)-5-methanesulfonyl-1H-indole], the IC50 was 800 nM against Human COX-2 and greater than 20000 nM at Human COX-1.
For `CS(=O)(=O)c1ccc2c(c1)cc(-c1nnco1)n2Cc1ccc(F)cc1` [Example 4, 1-(4-Fluorobenzyl)-5-methanesulfonyl-2-([1,3,4]oxadiazol-2-yl)indole], the IC50 was 4000 nM against Human COX-2 and greater than 20000 nM on Human COX-1.
With `CS(=O)(=O)c1cnc2c(c1)cc(-c1ccco1)n2Cc1ccc(F)cc1` [Example 1, 2-(2-Furyl)-1-(4-fluorobenzyl)-5-methanesulfonyl-1H-pyrrolo[2,3-b]pyridine], the IC50 on Human COX-2 is 150 nM; at Human COX-1, greater than 20000 nM.
In the case of `CS(=O)(=O)c1cnc2c(c1)cc(-c1nnco1)n2Cc1ccc(F)cc1` [Example 33, 1-(4-Fluorobenzyl)-5-methanesulfonyl-2-([1,3,4]oxadiazol-2-yl)-1H-pyrrolo[2,3-b]pyridine], the IC50 is 200 nM against Human COX-2 and greater than 20000 nM on Human COX-1.
On the same counts, the results for `CS(=O)(=O)c1cnc2c(c1)cc(-c1ncccn1)n2CC1CCCCC1` [Example 7, 1-Cyclohexylmethyl-5-methanesulfonyl-2-(2-pyrimidinyl)-1H-pyrrolo[2,3-b]pyridine] are 1500 nM and greater than 20000 nM.
With `CS(=O)(=O)c1cnc2c(c1)cc(-c1ncco1)n2Cc1ccc(F)cc1` [Example 3, 1-(4-Fluorobenzyl)-2-(oxazol-2-yl)-5-methanesulfonyl-1H-pyrrolo[2,3-b]pyridine], the melting point is 200 to 201 °C. This compound showed a half-maximal inhibitory concentration (IC50) at Human COX-2 of 300 nM. For the same compound, the 50% inhibitory concentration (IC50) on Human COX-1 is greater than 20000 nM.
In the case of `CS(=O)(=O)c1ccc2c(c1)cc(-c1nccs1)n2Cc1ccc(F)cc1` [Example 2, 1-(4-Fluorobenzyl)-5-methanesulfonyl-2-(thiazol-2-yl)indole], the IC50 is 500 nM against Human COX-2 and greater than 20000 nM on Human COX-1.
On the same counts, the results for `CS(=O)(=O)c1cnc2c(c1)cc(-c1ccccn1)n2Cc1ccc(F)cc1` [Example 5, 5-Methanesulfonyl-2-(2-pyridyl)-1-(4-fluorobenzyl)-1H-pyrrolo[2,3-b]pyridine] are 400 nM and greater than 20000 nM.
On to `CS(=O)(=O)c1cnc2c(c1)cc(-c1ccco1)n2Cc1ccccn1` [Example 10, 2-(2-Furanyl)-5-methanesulfonyl-1-(2-pyridylmethyl)-1H-pyrrolo[2,3-b]pyridine], for which the IC50 against Human COX-2 is 1500 nM; at Human COX-1, greater than 20000 nM.
For `CS(=O)(=O)c1cnc2c(c1)cc(-c1ccco1)n2CC1CCCCC1` [Example 12, 2-(2-Furanyl)-1-cyclohexylmethyl-5-methanesulfonyl-1H-pyrrolo[2,3-b]pyridine], the values for the IC50 against Human COX-2 and on Human COX-1 were 150 nM and greater than 20000 nM, respectively.
In the case of `CNC(=O)c1ccc(-c2cc3cc(S(C)(=O)=O)ccc3n2Cc2ccc(F)cc2)nc1` [Example 17, 1-(4-Fluorobenzyl)-5-methanesulfonyl-2-(5-methylaminocarbonylpyridin-2-yl)indole], the IC50 against Human COX-2 was 800 nM; on Human COX-1, greater than 20000 nM.
On to `CS(=O)(=O)c1ccc2c(c1)cc(-c1ccco1)n2CC1CCCCC1` [Example 9, 1-Cyclohexylmethyl-2-(2-furanyl)-5-methanesulfonylindole], for which the IC50 against Human COX-2 is 2000 nM; at Human COX-1, greater than 20000 nM.
Consider `CS(=O)(=O)c1ccc2c(c1)cc(C1CCCO1)n2Cc1ccc(F)cc1` (stereo not shown) [Example 13, 2-(2-Tetrahydrofuranyl)-1-(4-fluorobenzyl)-5-methanesulfonyl-indole], for which the IC50 against Human COX-2 is 4000 nM; at Human COX-1 it was greater than 10000 nM.
`Cc1ccc(-c2cc3cc(S(C)(=O)=O)cnc3n2Cc2ccc(F)cc2)o1` [Example 11, 1-(4-Fluorobenzyl)-5-methanesulfonyl-2-(5-methylfuran-2-yl)-1H-pyrrolo[2,3-b]pyridine]: the IC50 on Human COX-2 was 200 nM; at Human COX-1, greater than 20000 nM.
